Test results reported in ChEMBL document CHEMBL1201861, “Genomics of Drug Sensitity in Cancer screening data, Wellcome Trust Sanger Institute”.

Legend:
Experiment in all cases: cells
Conditions in all cases: Homo sapiens
CPC-N = type: functional, cell-based
Description: SANGER: Inhibition of human CPC-N cell growth in a cell viability assay.

DMS-153 = type: functional, cell-based
Description: SANGER: Inhibition of human DMS-153 cell growth in a cell viability assay.

K052 = type: functional, cell-based
Description: SANGER: Inhibition of human K052 cell growth in a cell viability assay.

LU-165 = type: functional, cell-based
Description: SANGER: Inhibition of human LU-165 cell growth in a cell viability assay.

NB17 = type: functional, cell-based
Description: SANGER: Inhibition of human NB17 cell growth in a cell viability assay.

NCI-H1963 = type: functional, cell-based
Description: SANGER: Inhibition of human NCI-H1963 cell growth in a cell viability assay.

NCI-H2141 = type: functional, cell-based
Description: SANGER: Inhibition of human NCI-H2141 cell growth in a cell viability assay.

NCI-H2171 = type: functional, cell-based
Description: SANGER: Inhibition of human NCI-H2171 cell growth in a cell viability assay.

NCI-H345 = type: functional, cell-based
Description: SANGER: Inhibition of human NCI-H345 cell growth in a cell viability assay.

P31-FUJ = type: functional, cell-based
Description: SANGER: Inhibition of human P31-FUJ cell growth in a cell viability assay.

SIG-M5 = type: functional, cell-based
Description: SANGER: Inhibition of human SIG-M5 cell growth in a cell viability assay.

SNU-C1 = type: functional, cell-based
Description: SANGER: Inhibition of human SNU-C1 cell growth in a cell viability assay.

ARH-77 = type: functional, cell-based
Description: SANGER: Inhibition of human ARH-77 cell growth in a cell viability assay.

CA46 = type: functional, cell-based
Description: SANGER: Inhibition of human CA46 cell growth in a cell viability assay.

TGW = type: functional, cell-based
Description: SANGER: Inhibition of human TGW cell growth in a cell viability assay.

THP-1 = type: functional, cell-based
Description: SANGER: Inhibition of human THP-1 cell growth in a cell viability assay.

U-698-M = type: functional, cell-based
Description: SANGER: Inhibition of human U-698-M cell growth in a cell viability assay.

Ca-Ski = type: functional, cell-based
Description: SANGER: Inhibition of human Ca-Ski cell growth in a cell viability assay.

Ca9-22 = type: functional, cell-based
Description: SANGER: Inhibition of human Ca9-22 cell growth in a cell viability assay.

EFO-21 = type: functional, cell-based
Description: SANGER: Inhibition of human EFO-21 cell growth in a cell viability assay.

GAMG = type: functional, cell-based
Description: SANGER: Inhibition of human GAMG cell growth in a cell viability assay.

GCT = type: functional, cell-based
Description: SANGER: Inhibition of human GCT cell growth in a cell viability assay.

GMS-10 = type: functional, cell-based
Description: SANGER: Inhibition of human GMS-10 cell growth in a cell viability assay.

HCC1806 = type: functional, cell-based
Description: SANGER: Inhibition of human HCC1806 cell growth in a cell viability assay.

HCC1954 = type: functional, cell-based
Description: SANGER: Inhibition of human HCC1954 cell growth in a cell viability assay.

HGC-27 = type: functional, cell-based
Description: SANGER: Inhibition of human HGC-27 cell growth in a cell viability assay.

HT-29 = type: functional, cell-based
Description: SANGER: Inhibition of human HT-29 cell growth in a cell viability assay.

HTC-C3 = type: functional, cell-based
Description: SANGER: Inhibition of human HTC-C3 cell growth in a cell viability assay.

Huh-7 = type: functional, cell-based
Description: SANGER: Inhibition of human HuH-7 cell growth in a cell viability assay.

HuO-3N1 = type: functional, cell-based
Description: SANGER: Inhibition of human HuO-3N1 cell growth in a cell viability assay.

HuP-T3 = type: functional, cell-based
Description: SANGER: Inhibition of human HuP-T3 cell growth in a cell viability assay.

J82 = type: functional, cell-based
Description: SANGER: Inhibition of human J82 cell growth in a cell viability assay.

JEG-3 = type: functional, cell-based
Description: SANGER: Inhibition of human JEG-3 cell growth in a cell viability assay.

KYSE-410 = type: functional, cell-based
Description: SANGER: Inhibition of human KYSE-410 cell growth in a cell viability assay.

KYSE-450 = type: functional, cell-based
Description: SANGER: Inhibition of human KYSE-450 cell growth in a cell viability assay.

KYSE-510 = type: functional, cell-based
Description: SANGER: Inhibition of human KYSE-510 cell growth in a cell viability assay.

LK-2 = type: functional, cell-based
Description: SANGER: Inhibition of human LK-2 cell growth in a cell viability assay.

MKN-1 = type: functional, cell-based
Description: SANGER: Inhibition of human MKN1 cell growth in a cell viability assay.

NCI-H1792 = type: functional, cell-based
Description: SANGER: Inhibition of human NCI-H1792 cell growth in a cell viability assay.

NCI-H2405 = type: functional, cell-based
Description: SANGER: Inhibition of human NCI-H2405 cell growth in a cell viability assay.

NCI-H292 = type: functional, cell-based
Description: SANGER: Inhibition of human NCI-H292 cell growth in a cell viability assay.

NCI-H727 = type: functional, cell-based
Description: SANGER: Inhibition of human NCI-H727 cell growth in a cell viability assay.

NCI-N87 = type: functional, cell-based
Description: SANGER: Inhibition of human NCI-N87 cell growth in a cell viability assay.

OE19 = type: functional, cell-based
Description: SANGER: Inhibition of human OE19 cell growth in a cell viability assay.

PA-1 = type: functional, cell-based
Description: SANGER: Inhibition of human PA-1 cell growth in a cell viability assay.

RCM-1 = type: functional, cell-based
Description: SANGER: Inhibition of human RCM-1 cell growth in a cell viability assay.

RD = type: functional, cell-based
Description: SANGER: Inhibition of human RD cell growth in a cell viability assay.

RPMI-7951 = type: functional, cell-based
Description: SANGER: Inhibition of human RPMI-7951 cell growth in a cell viability assay.

SAS = type: functional, cell-based
Description: SANGER: Inhibition of human SAS cell growth in a cell viability assay.

SCC-25 = type: functional, cell-based
Description: SANGER: Inhibition of human SCC-25 cell growth in a cell viability assay.

SK-HEP1 = type: functional, cell-based, SK-HEP-1
Description: SANGER: Inhibition of human SK-HEP-1 cell growth in a cell viability assay.

SK-MEL3 = type: functional, cell-based, SK-MEL-3
Description: SANGER: Inhibition of human SK-MEL-3 cell growth in a cell viability assay.

SNU-449 = type: functional, cell-based
Description: SANGER: Inhibition of human SNU-449 cell growth in a cell viability assay.

SW1417 = type: functional, cell-based
Description: SANGER: Inhibition of human SW1417 cell growth in a cell viability assay.

SW1710 = type: functional, cell-based
Description: SANGER: Inhibition of human SW1710 cell growth in a cell viability assay.

ABC-1 = type: functional, cell-based
Description: SANGER: Inhibition of human ABC-1 cell growth in a cell viability assay.

BPH-1 = type: functional, cell-based
Description: SANGER: Inhibition of human BPH-1 cell growth in a cell viability assay.

C-33-A = type: functional, cell-based
Description: SANGER: Inhibition of human C-33-A cell growth in a cell viability assay.

CAL-120 = type: functional, cell-based
Description: SANGER: Inhibition of human CAL-120 cell growth in a cell viability assay.

CAL-39 = type: functional, cell-based
Description: SANGER: Inhibition of human CAL-39 cell growth in a cell viability assay.

CAL-72 = type: functional, cell-based
Description: SANGER: Inhibition of human CAL-72 cell growth in a cell viability assay.

U2OS = type: functional, cell-based, U-2-OS
Description: SANGER: Inhibition of human U-2-OS cell growth in a cell viability assay.

U-251 = type: functional, cell-based
Description: SANGER: Inhibition of human U251 cell growth in a cell viability assay.

UMUC3 = type: functional, cell-based
Description: SANGER: Inhibition of human UM-UC-3 cell growth in a cell viability assay.

YKG-1 = type: functional, cell-based
Description: SANGER: Inhibition of human YKG-1 cell growth in a cell viability assay.

COLO-678 = type: functional, cell-based
Description: SANGER: Inhibition of human COLO-678 cell growth in a cell viability assay.

## CCNc1cc(N[C@H]2CC[C@@H](O)CC2)nc(Nc2ccc3c(ccn3Cc3ccccc3)c2)n1
CPC-N
  IC50: > 5.12 µM
DMS-153
  IC50: > 5.12 µM
K052
  IC50: > 5.12 µM
LU-165
  IC50: > 5.12 µM
NB17
  IC50: > 5.12 µM
NCI-H1963
  IC50: > 5.12 µM
NCI-H2141
  IC50: > 5.12 µM
NCI-H2171
  IC50: > 5.12 µM
NCI-H345
  IC50: > 5.12 µM
P31-FUJ
  IC50: > 5.12 µM
SIG-M5
  IC50: > 5.12 µM
SNU-C1
  IC50: > 5.12 µM
ARH-77
  IC50: > 5.12 µM
CA46
  IC50: > 5.12 µM
TGW
  IC50: > 5.12 µM
THP-1
  IC50: > 5.12 µM
U-698-M
  IC50: > 5.12 µM

## N#C/C(=C1/Nc2ccccc2S1)c1ccnc(NCCc2cccnc2)n1
CPC-N
  IC50: > 8 µM
Ca-Ski
  IC50: > 8 µM
Ca9-22
  IC50: > 8 µM
DMS-153
  IC50: > 8 µM
EFO-21
  IC50: > 8 µM
GAMG
  IC50: > 8 µM
GCT
  IC50: 3.6 µM
GMS-10
  IC50: > 8 µM
HCC1806
  IC50: 1.53 µM
HCC1954
  IC50: > 8 µM
HGC-27
  IC50: 6.27 µM
HT-29
  IC50: 4.27 µM
HTC-C3
  IC50: 6.52 µM
Huh-7
  IC50: > 8 µM
HuO-3N1
  IC50: 0.815 µM
HuP-T3
  IC50: > 8 µM
J82
  IC50: 4.34 µM
JEG-3
  IC50: > 8 µM
K052
  IC50: > 8 µM
KYSE-410
  IC50: > 8 µM
KYSE-450
  IC50: 1.14 µM
KYSE-510
  IC50: > 8 µM
LK-2
  IC50: 6.53 µM
LU-165
  IC50: > 8 µM
MKN-1
  IC50: 2.9 µM
NCI-H1792
  IC50: > 8 µM
NCI-H1963
  IC50: > 8 µM
NCI-H2141
  IC50: > 8 µM
NCI-H2171
  IC50: > 8 µM
NCI-H2405
  IC50: 5.97 µM
NCI-H292
  IC50: > 8 µM
NCI-H345
  IC50: > 8 µM
NCI-H727
  IC50: 0.893 µM
NCI-N87
  IC50: > 8 µM
OE19
  IC50: 2.92 µM
P31-FUJ
  IC50: > 8 µM
PA-1
  IC50: 1.53 µM
RCM-1
  IC50: > 8 µM
RD
  IC50: > 8 µM
RPMI-7951
  IC50: > 8 µM
SAS
  IC50: > 8 µM
SCC-25
  IC50: 5.31 µM
SIG-M5
  IC50: > 8 µM
SK-HEP1
  IC50: 4.86 µM
SK-MEL3
  IC50: > 8 µM
SNU-449
  IC50: 4.87 µM
SNU-C1
  IC50: > 8 µM
SW1417
  IC50: > 8 µM
SW1710
  IC50: 1.59 µM
ABC-1
  IC50: > 8 µM
ARH-77
  IC50: > 8 µM
BPH-1
  IC50: > 8 µM
C-33-A
  IC50: 2.67 µM
CA46
  IC50: 5.45 µM
CAL-120
  IC50: > 8 µM
CAL-39
  IC50: > 8 µM
CAL-72
  IC50: > 8 µM
TGW
  IC50: > 8 µM
THP-1
  IC50: 5.33 µM
U2OS
  IC50: > 8 µM
U-698-M
  IC50: 2.98 µM
U-251
  IC50: > 8 µM
UMUC3
  IC50: > 8 µM
YKG-1
  IC50: 3.77 µM
COLO-678
  IC50: > 8 µM

## COc1cc(C)c(Sc2cnc(NC(=O)c3ccc(CNC(C)C(C)(C)C)cc3)s2)cc1C(=O)N1CCN(C(C)=O)CC1 (stereo not drawn)
CPC-N
  IC50: > 10.2 µM
DMS-153
  IC50: > 10.2 µM
K052
  IC50: > 10.2 µM
LU-165
  IC50: > 10.2 µM
NB17
  IC50: 8.92 µM
NCI-H1963
  IC50: > 10.2 µM
NCI-H2141
  IC50: > 10.2 µM
NCI-H2171
  IC50: > 10.2 µM
NCI-H345
  IC50: > 10.2 µM
P31-FUJ
  IC50: > 10.2 µM
SIG-M5
  IC50: 8.07 µM
SNU-C1
  IC50: > 10.2 µM
ARH-77
  IC50: > 10.2 µM
CA46
  IC50: > 10.2 µM
TGW
  IC50: > 10.2 µM
THP-1
  IC50: > 10.2 µM
U-698-M
  IC50: > 10.2 µM

## Cc1ccc(NC(=O)c2cccc(C(C)(C)C#N)c2)cc1Nc1ccc2ncn(C)c(=O)c2c1
CPC-N
  IC50: > 4 µM
DMS-153
  IC50: > 4 µM
LU-165
  IC50: > 4 µM
NB17
  IC50: > 4 µM
NCI-H1963
  IC50: > 4 µM
NCI-H2141
  IC50: > 4 µM
NCI-H2171
  IC50: > 4 µM
NCI-H345
  IC50: > 4 µM
P31-FUJ
  IC50: > 4 µM
SIG-M5
  IC50: 0.00945 µM
SNU-C1
  IC50: > 4 µM
ARH-77
  IC50: > 4 µM
CA46
  IC50: > 4 µM
TGW
  IC50: > 4 µM
THP-1
  IC50: > 4 µM
U-698-M
  IC50: > 4 µM

## Cc1n[nH]c2ccc(-c3cncc(OC[C@@H](N)Cc4c[nH]c5ccccc45)c3)cc12 [A-443654]
CPC-N
  IC50: 0.304 µM
DMS-153
  IC50: 0.669 µM
K052
  IC50: > 1.02 µM
LU-165
  IC50: 0.62 µM
NB17
  IC50: 0.112 µM
NCI-H1963
  IC50: 0.392 µM
NCI-H2141
  IC50: 0.54 µM
NCI-H2171
  IC50: > 1.02 µM
NCI-H345
  IC50: 0.75 µM
P31-FUJ
  IC50: > 1.02 µM
SIG-M5
  IC50: 0.13 µM
SNU-C1
  IC50: > 1.02 µM
ARH-77
  IC50: 0.298 µM
CA46
  IC50: > 1.02 µM
TGW
  IC50: 0.569 µM
THP-1
  IC50: > 1.02 µM
U-698-M
  IC50: > 1.02 µM

## Cc1nc(Nc2ncc(C(=O)Nc3c(C)cccc3Cl)s2)cc(N2CCN(CCO)CC2)n1 [DASATINIB]
CPC-N
  IC50: > 1.28 µM
DMS-153
  IC50: > 1.28 µM
K052
  IC50: > 1.28 µM
LU-165
  IC50: > 1.28 µM
NB17
  IC50: > 1.28 µM
NCI-H1963
  IC50: > 1.28 µM
NCI-H2141
  IC50: > 1.28 µM
NCI-H2171
  IC50: > 1.28 µM
NCI-H345
  IC50: > 1.28 µM
P31-FUJ
  IC50: > 1.28 µM
SIG-M5
  IC50: > 1.28 µM
SNU-C1
  IC50: > 1.28 µM
ARH-77
  IC50: > 1.28 µM
CA46
  IC50: > 1.28 µM
TGW
  IC50: > 1.28 µM
THP-1
  IC50: > 1.28 µM
U-698-M
  IC50: > 1.28 µM

## CCn1c(-c2nonc2N)nc2cnc(Oc3cccc(NC(=O)c4ccc(OCCN5CCOCC5)cc4)c3)cc21 [GSK-269962A]
CPC-N
  IC50: > 2.5 µM
DMS-153
  IC50: > 2.5 µM
K052
  IC50: 0.753 µM
LU-165
  IC50: > 2.5 µM
NB17
  IC50: > 2.5 µM
NCI-H1963
  IC50: 1.28 µM
NCI-H2141
  IC50: > 2.5 µM
NCI-H2171
  IC50: 0.959 µM
NCI-H345
  IC50: > 2.5 µM
P31-FUJ
  IC50: > 2.5 µM
SIG-M5
  IC50: > 2.5 µM
SNU-C1
  IC50: > 2.5 µM
ARH-77
  IC50: > 2.5 µM
CA46
  IC50: > 2.5 µM
TGW
  IC50: > 2.5 µM
THP-1
  IC50: > 2.5 µM
U-698-M
  IC50: > 2.5 µM

## Cc1[nH]c(/C=C2\C(=O)Nc3ccc(S(=O)(=O)Cc4c(Cl)cccc4Cl)cc32)c(C)c1C(=O)N1CCC[C@@H]1CN1CCCC1 [PHA-665752]
CPC-N
  IC50: > 2 µM
DMS-153
  IC50: > 2 µM
K052
  IC50: > 2 µM
LU-165
  IC50: > 2 µM
NB17
  IC50: > 2 µM
NCI-H1963
  IC50: > 2 µM
NCI-H2141
  IC50: > 2 µM
NCI-H2171
  IC50: > 2 µM
NCI-H345
  IC50: > 2 µM
P31-FUJ
  IC50: > 2 µM
SIG-M5
  IC50: > 2 µM
SNU-C1
  IC50: > 2 µM
ARH-77
  IC50: > 2 µM
CA46
  IC50: > 2 µM
TGW
  IC50: > 2 µM
THP-1
  IC50: > 2 µM
U-698-M
  IC50: > 2 µM
